Assay results as given in PubChem BioAssay (NCI).
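Five concentrations, 48 hours, 96-well plates. Definition used: TGI = concentration required for complete inhibition of growth.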

How the values were obtained:
Assay in all cases: growth of human tumour cells (NCI), 48 h
[1] = tested on: 786-0 renal
[2] = tested on: A498 renal
[3] = tested on: A549 NSCLC
[4] = tested on: ACHN renal
[5] = tested on: BT-549 breast
[6] = tested on: CAKI-1 renal
[7] = tested on: COLO 205 colon
[8] = tested on: DU-145 prostate
[9] = tested on: EKVX NSCLC
[10] = tested on: HCT-116 colon
[11] = tested on: HCT-15 colon
[12] = tested on: HOP-62 NSCLC
[13] = tested on: HOP-92 NSCLC
[14] = tested on: HS 578T breast
[15] = tested on: HT29 colon
[16] = tested on: IGROV1 ovarian
[17] = tested on: K-562 leukemia
[18] = tested on: KM12 colon
[19] = tested on: LOX IMVI melanoma
[20] = tested on: M14 melanoma
[21] = tested on: MALME-3M melanoma
[22] = tested on: MCF7 breast
[23] = tested on: MDA-MB-231 breast
[24] = tested on: MDA-MB-435
[25] = tested on: MDA-N
[26] = tested on: MOLT-4 leukemia
[27] = tested on: NCI-H226 lung
[28] = tested on: NCI-H23 lung
[29] = tested on: NCI-H460 lung
[30] = tested on: NCI-H522 lung
[31] = tested on: NCI/ADR-RES ovarian
[32] = tested on: OVCAR-3 ovarian
[33] = tested on: OVCAR-4 ovarian
[34] = tested on: OVCAR-5 ovarian
[35] = tested on: OVCAR-8 ovarian
[36] = tested on: PC-3 prostate
[37] = tested on: RPMI-8226 leukemia
[38] = tested on: RXF 393 renal
[39] = tested on: SF-268 CNS
[40] = tested on: SF-295 CNS
[41] = tested on: SF-539 CNS
[42] = tested on: SK-MEL-2 melanoma
[43] = tested on: SK-MEL-28 melanoma
[44] = tested on: SK-MEL-5 melanoma
[45] = tested on: SK-OV-3 ovarian
[46] = tested on: SN12C renal
[47] = tested on: SNB-19 CNS
[48] = tested on: SNB-75 CNS
[49] = tested on: SR leukemia
[50] = tested on: T-47D breast
[51] = tested on: TK-10 renal
[52] = tested on: U251 CNS
[53] = tested on: UACC-257 melanoma
[54] = tested on: UACC-62 melanoma
[55] = tested on: UO-31 renal
[56] = tested on: CCRF-CEM leukemia
[57] = tested on: HL-60(TB) leukemia
[58] = tested on: SW-620 colon

In the case of `Cn1c(=O)c2[nH]c(CSCc3ccccc3)nc2n(C)c1=O`, the TGI [1] is reported as greater than 100 µM, the TGI [2] is reported as greater than 100 µM and the TGI [3] is reported as greater than 100 µM. It also gave a TGI [4] greater than 100 µM, a TGI [5] greater than 100 µM and a TGI [6] greater than 100 µM. For the same compound, the TGI [7] was greater than 100 µM, the TGI [8] was greater than 100 µM and the TGI [9] was greater than 100 µM. For the same compound, the TGI [10] was greater than 100 µM, the TGI [11] was greater than 100 µM and the TGI [12] was greater than 100 µM. For the same compound, the TGI [13] was greater than 100 µM, the TGI [14] was greater than 100 µM and the TGI [15] was greater than 100 µM. For the same compound, the TGI [16] was greater than 100 µM, the TGI [17] was greater than 100 µM and the TGI [18] was greater than 100 µM. The TGI [19] was greater than 100 µM, the TGI [20] was greater than 100 µM and the TGI [21] was greater than 100 µM. The TGI [22] was greater than 100 µM, the TGI [23] was greater than 100 µM and the TGI [24] was greater than 100 µM. The TGI [25] was greater than 100 µM, the TGI [26] was greater than 100 µM and the TGI [27] was greater than 100 µM. It also gave a TGI [28] greater than 100 µM, a TGI [29] greater than 100 µM and a TGI [30] greater than 100 µM. The TGI [31] was greater than 100 µM, the TGI [32] was greater than 100 µM and the TGI [33] was greater than 100 µM. For the same compound, the TGI [34] was greater than 100 µM, the TGI [35] was greater than 100 µM and the TGI [36] was greater than 100 µM. It also gave a TGI [37] greater than 100 µM, a TGI [38] greater than 100 µM and a TGI [39] greater than 100 µM. For the same compound, the TGI [40] was greater than 100 µM, the TGI [41] was greater than 100 µM and the TGI [42] was greater than 100 µM. The TGI [43] was greater than 100 µM, the TGI [44] was greater than 100 µM and the TGI [45] was greater than 100 µM. For the same compound, the TGI [46] was greater than 100 µM, the TGI [47] was greater than 100 µM and the TGI [48] was greater than 100 µM. The TGI [49] was greater than 100 µM, the TGI [50] was greater than 100 µM and the TGI [51] was greater than 100 µM. For the same compound, the TGI [52] was greater than 100 µM, the TGI [53] was greater than 100 µM and the TGI [54] was greater than 100 µM. The TGI [55] was greater than 100 µM.

For `O=C(c1cccc(F)c1F)N1CCc2c([nH]c3ccccc23)C1c1ccc2c(c1)OCO2` (centres undefined), the TGI [1] was greater than 100 µM, the TGI [2] was greater than 100 µM and the TGI [3] was 72.5 µM. The TGI [4] was greater than 100 µM, the TGI [5] was greater than 100 µM and the TGI [6] was 87.2 µM. The TGI [56] was greater than 100 µM, the TGI [7] was 12.9 µM and the TGI [8] was greater than 100 µM. The TGI [9] was 65.3 µM, the TGI [10] was greater than 100 µM and the TGI [11] was greater than 100 µM. For the same compound, the TGI [57] was 18.7 µM, the TGI [12] was 2.83 µM and the TGI [13] was greater than 100 µM. It also gave a TGI [14] greater than 100 µM, a TGI [15] greater than 100 µM and a TGI [16] greater than 100 µM. For the same compound, the TGI [17] was greater than 100 µM, the TGI [18] was 32.7 µM and the TGI [19] was greater than 100 µM. The TGI [20] was 18.4 µM, the TGI [21] was greater than 100 µM and the TGI [22] was 57.4 µM. It also gave a TGI [23] of 74.5 µM, a TGI [24] of 6.09 µM and a TGI [25] of 7.01 µM. It also gave a TGI [26] greater than 100 µM, a TGI [28] greater than 100 µM and a TGI [29] of 29.9 µM. It also gave a TGI [30] of 60.2 µM, a TGI [31] of 53 µM and a TGI [32] of 5.26 µM. The TGI [33] was 67.8 µM, the TGI [34] was greater than 100 µM and the TGI [35] was greater than 100 µM. It also gave a TGI [36] of 39.2 µM, a TGI [37] of 48.1 µM and a TGI [38] of 35.4 µM. It also gave a TGI [39] greater than 100 µM, a TGI [40] of 26.3 µM and a TGI [41] of 21.4 µM. The TGI [42] was 16.5 µM, the TGI [43] was greater than 100 µM and the TGI [44] was 13.4 µM. The TGI [45] was 51.9 µM, the TGI [46] was 91.1 µM and the TGI [47] was 61.4 µM. For the same compound, the TGI [48] was 22.2 µM, the TGI [49] was 21.3 µM and the TGI [58] was greater than 100 µM. The TGI [50] was greater than 100 µM, the TGI [51] was greater than 100 µM and the TGI [52] was greater than 100 µM. For the same compound, the TGI [53] was 60.4 µM, the TGI [54] was 48.8 µM and the TGI [55] was 47.7 µM.

`O=C(O)CNCP(=O)(O)O` gave a TGI [1] greater than 100 µM, a TGI [2] greater than 100 µM and a TGI [3] greater than 100 µM. The TGI [4] was greater than 100 µM, the TGI [5] was greater than 100 µM and the TGI [6] was greater than 100 µM. It also gave a TGI [56] greater than 100 µM, a TGI [7] greater than 100 µM and a TGI [8] greater than 100 µM. The TGI [9] was greater than 100 µM, the TGI [10] was greater than 100 µM and the TGI [11] was greater than 100 µM. For the same compound, the TGI [57] was greater than 100 µM, the TGI [12] was greater than 100 µM and the TGI [13] was greater than 100 µM. It also gave a TGI [14] greater than 100 µM, a TGI [15] greater than 100 µM and a TGI [16] greater than 100 µM. It also gave a TGI [17] greater than 100 µM, a TGI [18] greater than 100 µM and a TGI [19] greater than 100 µM. It also gave a TGI [20] greater than 100 µM, a TGI [21] greater than 100 µM and a TGI [22] greater than 100 µM. It also gave a TGI [23] greater than 100 µM, a TGI [24] greater than 100 µM and a TGI [25] greater than 100 µM. It also gave a TGI [26] greater than 100 µM, a TGI [27] greater than 100 µM and a TGI [28] greater than 100 µM. For the same compound, the TGI [29] was greater than 100 µM, the TGI [30] was greater than 100 µM and the TGI [31] was greater than 100 µM. For the same compound, the TGI [32] was greater than 100 µM, the TGI [33] was greater than 100 µM and the TGI [34] was greater than 100 µM. The TGI [35] was greater than 100 µM, the TGI [36] was greater than 100 µM and the TGI [37] was greater than 100 µM. It also gave a TGI [38] greater than 100 µM, a TGI [39] greater than 100 µM and a TGI [40] greater than 100 µM. The TGI [41] was greater than 100 µM, the TGI [42] was greater than 100 µM and the TGI [43] was greater than 100 µM. For the same compound, the TGI [44] was greater than 100 µM, the TGI [45] was greater than 100 µM and the TGI [46] was greater than 100 µM. It also gave a TGI [47] greater than 100 µM, a TGI [48] greater than 100 µM and a TGI [49] greater than 100 µM. For the same compound, the TGI [58] was greater than 100 µM, the TGI [50] was greater than 100 µM and the TGI [51] was greater than 100 µM. For the same compound, the TGI [52] was greater than 100 µM, the TGI [53] was greater than 100 µM and the TGI [54] was greater than 100 µM.
